The record followed here is patent publication US20250025473A1 (priority 2021, published 2025).

The structures appear in SMILES notation. Where two headings read alike, the source gives them in different places.

The target of data set [1] is T1, panel of 393 kinases (Homo sapiens, UniProt P54646).
T1 construct: purchased Reaction Biology Corporation
Description: biochemical. The settings on record: CIMSS 10 μM, 10 μM ATP.

Data set [2] addresses T2, panel of 393 kinases (Homo sapiens, UniProt Q9P2K8).
T2 construct: purchased Reaction Biology Corporation
Nature of the data set: biochemical. The note with it: CIMSS 10 μM, 10 μM ATP.

In a further data set the target is T3, AKT2 (Homo sapiens, UniProt P31751).
T3 construct: purchased Reaction Biology Corporation
Description: HotSpot in vitro kinase assay, AKT2. Format: biochemical.

Another data set concerns the target PKA (Homo sapiens, UniProt P17612). Description: HotSpot in vitro kinase assay, PKA.
The next data set deals with Akt, PDPK1, PLCγ. Description: HSV-induced phosphorylation of Akt, PDPK1 and PLCγ (confocal, biotinylation of cell surface proteins). It is filed as cell-based, human. The note with it: 10 μM, HaCat.
The nature of data set [3]: Parallel artificial membrane permeability assay (PAMPA). It is filed as in vitro ADME. The settings on record: 100 μM.
A further data set deals with HSV-1 K26GFP. Description: HSV capsid entry, GFP+ cells by confocal imaging. The note with it: HaCat, CIMSS 10 μM, anti-Akt 2 μg/ml, cycloheximide 10 μg/ml.

T1 sequence (P54646 whole entry): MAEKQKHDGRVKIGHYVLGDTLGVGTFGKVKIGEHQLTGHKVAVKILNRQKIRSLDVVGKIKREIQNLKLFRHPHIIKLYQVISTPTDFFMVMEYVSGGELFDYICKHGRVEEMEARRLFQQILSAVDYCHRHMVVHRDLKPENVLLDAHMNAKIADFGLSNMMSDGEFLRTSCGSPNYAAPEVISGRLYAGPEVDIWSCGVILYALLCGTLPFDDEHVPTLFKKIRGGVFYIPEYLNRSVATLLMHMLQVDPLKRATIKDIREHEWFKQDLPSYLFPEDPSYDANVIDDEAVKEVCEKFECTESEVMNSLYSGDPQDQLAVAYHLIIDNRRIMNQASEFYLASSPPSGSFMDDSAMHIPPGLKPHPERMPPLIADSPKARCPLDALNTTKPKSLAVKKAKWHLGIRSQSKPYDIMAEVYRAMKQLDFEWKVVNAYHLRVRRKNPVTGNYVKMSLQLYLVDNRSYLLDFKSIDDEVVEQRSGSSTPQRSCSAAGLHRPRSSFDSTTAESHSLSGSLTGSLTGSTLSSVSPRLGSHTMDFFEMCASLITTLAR
T2 sequence (Q9P2K8 whole entry): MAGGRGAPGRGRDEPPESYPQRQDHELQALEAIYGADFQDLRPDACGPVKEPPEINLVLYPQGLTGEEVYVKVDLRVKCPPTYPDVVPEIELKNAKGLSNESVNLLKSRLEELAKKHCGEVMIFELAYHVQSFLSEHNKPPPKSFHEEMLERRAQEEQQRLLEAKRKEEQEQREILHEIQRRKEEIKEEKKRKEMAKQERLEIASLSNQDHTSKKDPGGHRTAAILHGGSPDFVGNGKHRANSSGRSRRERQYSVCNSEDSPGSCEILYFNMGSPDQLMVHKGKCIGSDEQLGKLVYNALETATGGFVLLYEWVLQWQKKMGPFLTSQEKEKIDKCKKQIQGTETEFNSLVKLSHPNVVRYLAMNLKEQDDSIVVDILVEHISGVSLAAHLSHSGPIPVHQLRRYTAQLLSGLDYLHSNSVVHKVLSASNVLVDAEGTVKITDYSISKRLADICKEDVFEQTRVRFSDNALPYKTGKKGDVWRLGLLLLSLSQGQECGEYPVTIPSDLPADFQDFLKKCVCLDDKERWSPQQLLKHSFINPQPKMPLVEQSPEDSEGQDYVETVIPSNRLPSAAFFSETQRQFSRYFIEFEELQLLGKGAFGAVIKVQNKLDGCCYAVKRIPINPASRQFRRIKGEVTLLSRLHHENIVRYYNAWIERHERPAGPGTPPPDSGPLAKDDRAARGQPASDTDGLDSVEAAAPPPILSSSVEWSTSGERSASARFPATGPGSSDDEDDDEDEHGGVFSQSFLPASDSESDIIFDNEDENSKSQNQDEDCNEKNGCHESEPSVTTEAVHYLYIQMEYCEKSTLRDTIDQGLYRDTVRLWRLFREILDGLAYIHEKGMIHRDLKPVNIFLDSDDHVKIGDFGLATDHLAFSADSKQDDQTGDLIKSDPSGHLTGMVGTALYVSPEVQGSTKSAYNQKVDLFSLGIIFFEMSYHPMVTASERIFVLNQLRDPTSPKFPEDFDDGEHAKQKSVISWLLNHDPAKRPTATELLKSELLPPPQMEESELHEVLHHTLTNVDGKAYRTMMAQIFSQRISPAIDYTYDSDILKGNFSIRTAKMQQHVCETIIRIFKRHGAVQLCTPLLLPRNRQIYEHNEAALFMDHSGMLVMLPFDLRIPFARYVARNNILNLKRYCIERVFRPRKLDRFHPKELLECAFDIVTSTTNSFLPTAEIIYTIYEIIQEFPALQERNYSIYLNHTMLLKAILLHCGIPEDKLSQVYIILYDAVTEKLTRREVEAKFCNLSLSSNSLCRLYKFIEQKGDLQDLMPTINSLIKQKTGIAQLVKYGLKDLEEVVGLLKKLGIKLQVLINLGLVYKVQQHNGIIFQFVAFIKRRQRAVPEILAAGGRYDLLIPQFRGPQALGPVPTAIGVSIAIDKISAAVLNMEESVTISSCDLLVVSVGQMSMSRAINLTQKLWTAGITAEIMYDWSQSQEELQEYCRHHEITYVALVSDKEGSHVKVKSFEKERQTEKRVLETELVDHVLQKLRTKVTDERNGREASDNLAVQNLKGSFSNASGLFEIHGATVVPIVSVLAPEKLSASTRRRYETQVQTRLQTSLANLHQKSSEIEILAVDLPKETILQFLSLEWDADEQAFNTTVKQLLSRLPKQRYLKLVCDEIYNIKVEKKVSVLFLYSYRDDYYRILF
T3 sequence (P31751 whole entry): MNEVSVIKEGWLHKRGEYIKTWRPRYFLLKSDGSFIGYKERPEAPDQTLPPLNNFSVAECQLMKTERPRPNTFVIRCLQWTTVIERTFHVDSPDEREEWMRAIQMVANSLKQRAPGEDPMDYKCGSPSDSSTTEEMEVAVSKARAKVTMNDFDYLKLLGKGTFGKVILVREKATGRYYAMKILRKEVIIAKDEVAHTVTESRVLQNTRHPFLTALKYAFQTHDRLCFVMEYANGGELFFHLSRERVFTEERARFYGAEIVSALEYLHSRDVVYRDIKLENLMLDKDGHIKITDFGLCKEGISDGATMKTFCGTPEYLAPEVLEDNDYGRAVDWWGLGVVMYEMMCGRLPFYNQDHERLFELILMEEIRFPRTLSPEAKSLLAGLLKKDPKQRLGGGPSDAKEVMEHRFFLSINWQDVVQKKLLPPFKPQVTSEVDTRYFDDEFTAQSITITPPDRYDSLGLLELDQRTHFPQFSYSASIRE

Turning to `CO[C@@H]1[C@H](N(C)C(=O)CCC(=O)NCc2cn(CCCS(=O)(=O)[O-])nn2)C[C@H]2O[C@]1(C)n1c3ccccc3c3c4c(c5c6ccccc6n2c5c31)C(=O)NC4.[Na+]` [CIMSS], the remaining activity at 10 µM was 0.67% at panel of 393 kinases [1] (read-out: % Enzyme Activity (relative to DMSO controls) CIMSS (10 μM) Data 1, kinase AMPK (A2/B1/G3), Data 1); 0.76% on panel of 393 kinases [1] (read-out: % Enzyme Activity (relative to DMSO controls) CIMSS (10 μM) Data 1, kinase AMPK(A2/B1/G1), Data 1); 0.34% on panel of 393 kinases [1] (read-out: % Enzyme Activity (relative to DMSO controls) CIMSS (10 μM) Data 1, kinase AMPK(A2/B2/G1), Data 1); 0.73% at panel of 393 kinases [1] (read-out: % Enzyme Activity (relative to DMSO controls) CIMSS (10 μM) Data 1, kinase AMPK(A2/B2/G2), Data 1); 0.63% at panel of 393 kinases [1] (read-out: % Enzyme Activity (relative to DMSO controls) CIMSS (10 μM) Data 1, kinase AMPK(A2/B2/G3), Data 1); 0.59% at panel of 393 kinases [1] (read-out: % Enzyme Activity (relative to DMSO controls) CIMSS (10 μM) Data 2, kinase AMPK (A2/B1/G3), Data 2). For the same molecule, the remaining activity at 10 µM on panel of 393 kinases [1] (read-out: % Enzyme Activity (relative to DMSO controls) CIMSS (10 μM) Data 2, kinase AMPK(A2/B1/G1), Data 2) turned out to be 0.64%; on panel of 393 kinases [1] (read-out: % Enzyme Activity (relative to DMSO controls) CIMSS (10 μM) Data 2, kinase AMPK(A2/B2/G1), Data 2), 0.23%; on panel of 393 kinases [1] (read-out: % Enzyme Activity (relative to DMSO controls) CIMSS (10 μM) Data 2, kinase AMPK(A2/B2/G2), Data 2) it was 0.63%; at panel of 393 kinases [1] (read-out: % Enzyme Activity (relative to DMSO controls) CIMSS (10 μM) Data 2, kinase AMPK(A2/B2/G3), Data 2) it was 0.61%; at panel of 393 kinases [2] (read-out: % Enzyme Activity (relative to DMSO controls) CIMSS (10 μM) Data 1, kinase EIF2AK4, Data 1), 9.5%; on panel of 393 kinases [2] (read-out: % Enzyme Activity (relative to DMSO controls) CIMSS (10 μM) Data 2, kinase EIF2AK4, Data 2), 9.39%. Also, the IC50 on AKT2 (in vitro kinase activity, read-out: Compound IC50, AKT2) is 1000 nM; at PKA (read-out: Compound IC50, PKA, in vitro kinase activity), 42.3 nM. Further, the inhibition at 10 µM on AKT2 (read-out: inhibition of Akt2) was more than 75%. In addition, on PKA, the “fold less effective than staurosporine (IC50), PKA” value was approximately 46 fold. The “pPDPK1 and pPLCγ signal by confocal microscopy” value in the data set on Akt, PDPK1, PLCγ (15 and 30 minutes following viral infection) is “inhibited”. In addition, the “phosphorylation of PDPK1, PLCγ and Akt in the membrane fraction” value in the data set with Akt, PDPK1, PLCγ (15 minutes of HSV exposure, biotinylation) is listed as “reduced”. Further, the “Recover %, PAMPA” value in data set [3] is listed as 83%. The “percentage of GFP+ cells” value with HSV-1 K26GFP (4 h post-temperature shift) was “significantly reduced”; in the data set on HSV-1 K26GFP (one hour post temperature shift) it was “significantly decreased”.
